Experimental data as given in ChEMBL document CHEMBL3860083, “Tautomeric and non-tautomeric N-substituted 2-iminobenzimidazolines as new lead compounds for the design of anti-influenza drugs: An in vitro study” (Bioorg Med Chem, 2016).

Experiments:
[1] = Antiviral activity against Influenza A virus (A/California/07/09(H1N1))pdm09 infected in MDCK cells assessed as decrease in virus production preincubated for 1 hr with cells followed by viral infection measured after 24 hrs by hemagglutination assay; format: functional, cell-based, Influenza A virus (A/California/07/2009(H1N1))
[2] = Cytotoxicity against MDCK cells assessed as increase in cell death after 48 hrs by MTT assay; format: toxicity, cell-based, Canis lupus familiaris; settings: dog
[3] = Selectivity index, ratio of CC50 for MDCK cells to IC50 for Influenza A virus (A/California/07/09(H1N1)) pdm09; format: functional
[4] = system: Lassa virus; assay: Antiviral activity against Lassa virus; format: functional; settings: Mammarenavirus lassaense
[5] = system: Sabia virus; assay: Antiviral activity against Sabia virus; format: functional
[6] = system: Machupo mammarenavirus; assay: Antiviral activity against Machupo virus; format: functional; settings: Mammarenavirus machupoense
[7] = system: Guanarito virus; assay: Antiviral activity against Guanarito virus; format: functional; settings: Mammarenavirus guanaritoense
[8] = system: Junin virus; assay: Antiviral activity against Junin virus; format: functional; settings: Mammarenavirus juninense

| SMILES | IC50 [1] | CC50 at 48 h [2] | Ratio CC50/IC50 [3] | IC50 [4] | IC50 [5] | IC50 [6] | IC50 [7] | IC50 [8] |
| --- | --- | --- | --- | --- | --- | --- | --- | --- |
| O=C(Nc1nc2ccccc2n1CCOc1ccccc1)c1ccco1 | 42.9 µM | 2160 µM | 50 |  |  |  |  |  |
| O=C(Nc1nc2ccccc2n1CCOc1ccc(Cl)cc1)c1ccco1 | 57.6 µM | 346 µM | 6 |  |  |  |  |  |
| S=C(Nc1ccccc1)Nc1nc2ccccc2n1CCOc1ccc(Br)cc1 | > 21.4 µM | 20.3 µM | <1 |  |  |  |  |  |
| S=C(Nc1ccccc1)Nc1nc2ccccc2n1CCOc1ccccc1 | 25.8 µM | 25.8 µM | 1 |  |  |  |  |  |
| Cl.N=c1n(Cc2ccc(F)cc2)c2ccccc2n1Cc1ccc(Cl)c(Cl)c1 | 4.5 µM | 21.8 µM | 5 |  |  |  |  |  |
| O=C(/N=c1\[nH]c2ccccc2n1CCOc1ccc(F)cc1)c1ccc(Cl)cc1 | 112 µM | > 732 µM | >7 |  |  |  |  |  |
| Br.C=CCn1c(=N)n(CCOc2ccc(C(C)(C)C)cc2)c2ccccc21 | 1.6 µM | 12.8 µM | 8 |  |  |  |  |  |
| CC(C)(C)c1ccc(OCCn2c(=N)n(CC(N)=O)c3ccccc32)cc1.Cl | 27.5 µM | 151 µM | 5 |  |  |  |  |  |
| O=C(/N=c1\[nH]c2ccccc2n1CCOc1ccc(F)cc1)c1ccc([N+](=O)[O-])cc1 | 543 µM | > 2550 µM | >5 |  |  |  |  |  |
| Cl.N=c1n(CCO)c2ccccc2n1Cc1ccc(Cl)c(Cl)c1 | 2.4 µM | 202 µM | 83 |  |  |  |  |  |
| O=C(/N=c1\[nH]c2ccccc2n1CCOc1cccc(Cl)c1)c1ccco1 | 13.1 µM | 820 µM | 63 |  |  |  |  |  |
| Cl.N=c1n(CC(N)=O)c2ccccc2n1Cc1ccc(Cl)c(Cl)c1 | 7 µM | 196 µM | 28 |  |  |  |  |  |
| O=C(/N=c1\[nH]c2ccccc2n1CCOc1ccc(Cl)cc1)c1cccs1 | 297 µM | 2240 µM | 8 |  |  |  |  |  |
| Cl.N=c1n(CO)c2ccccc2n1CCOc1ccc(Cl)cc1 | 4.6 µM | 40.8 µM | 9 |  |  |  |  |  |
| Cc1ccccc1OCCn1/c(=N/C(=O)c2cccs2)[nH]c2ccccc21 | 33.2 µM | 159 µM | 5 |  |  |  |  |  |
| O=C(/N=c1\[nH]c2ccccc2n1CCOc1ccc(Br)cc1)c1cccs1 | 317 µM | > 2260 µM | >7 |  |  |  |  |  |
| Cl.N=c1n(CCOc2ccc(F)cc2)c2ccccc2n1CC(N)=O | 54.8 µM | 1260 µM | 23 |  |  |  |  |  |
| COc1ccc(OCCn2/c(=N/C(=O)c3cccs3)[nH]c3ccccc32)cc1 | 450 µM | > 2540 µM | >6 |  |  |  |  |  |
| COc1ccc(-n2cnc3cc(NCc4ccc(C)cc4)ccc32)cc1 |  |  |  | 0.0016 µM | 0.0002 to 0.012 µM | 0.0002 to 0.012 µM | 0.0002 to 0.012 µM | 0.0002 to 0.012 µM |
| Br.Cc1ccc(OCCn2c(=N)n(Cc3ccc(Cl)c(Cl)c3)c3ccccc32)cc1 | 0.6 µM | 13.2 µM | 11 |  |  |  |  |  |
| Br.C=CCn1c(=N)n(CCCOc2ccc(F)cc2)c2ccccc21 | 9.9 µM | 80.1 µM | 8 |  |  |  |  |  |
| CC(C)(C)c1ccc(C(=O)/N=c2\[nH]c3ccccc3n2CCOc2ccc(Br)cc2)cc1 | 37.4 µM | 2030 µM | 54 |  |  |  |  |  |
| Cc1ccc(OCCn2c(=N)n(CC(N)=O)c3ccccc32)cc1.Cl | 35.8 µM | 309 µM | 9 |  |  |  |  |  |
